From ChEMBL document CHEMBL1146619, “The design and synthesis of guanosine compounds with in vitro activity against the colon cancer cell line SW480: non-taxane derived mimics of taxol?” (Bioorg Med Chem Lett, 2003)

test system: SW480; assay: In vitro anti-cancer activity against the colon cancer cell line SW480 was determined; format: functional, cell-based; conditions: Homo sapiens

Compound | IC50 [µM]
CC(=O)N1[C@@H](c2ccccc2)[C@H](C(=O)OCC2OC(n3cnc4c(O)nc(NC(=O)C(C)C)nc43)C3OC(C)(C)OC23)OC1(C)C (stereo not given in full) | 192
COc1ccc(C(Nc2nc(O)c3ncn(C4OC(COC(=O)[C@@H]5OC(C)(C)N(C(=O)c6ccccc6)[C@H]5c5ccccc5)C5OC(C)(C)OC54)c3n2)(c2ccccc2)c2ccccc2)cc1 (stereo not given in full) | 152
COc1ccc(C(Nc2nc(O)c3ncn(C4OC(COC(=O)[C@@H]5OC(C)(C)N(C(C)=O)[C@H]5c5ccccc5)C5OC(C)(C)OC54)c3n2)(c2ccccc2)c2ccccc2)cc1 (stereo not given in full) | 19.9
CC(C)C(=O)Nc1nc(O)c2ncn(C3OC(COC(=O)[C@@H]4OC(C)(C)N(C(=O)c5ccccc5)[C@H]4c4ccccc4)C4OC(C)(C)OC43)c2n1 (stereo not given in full) | 222
CC(=O)O[C@H]1C(=O)[C@@]2(C)[C@H]([C@H](OC(=O)c3ccccc3)[C@]3(O)C[C@H](OC(=O)[C@H](O)[C@@H](NC(=O)c4ccccc4)c4ccccc4)C(C)=C1C3(C)C)[C@]1(OC(C)=O)CO[C@@H]1C[C@@H]2O [PACLITAXEL] | 0.312
